From US9050330B2, “Method, composition and kit for treating frequent headaches” (priority 2012, dated 2015)

Columns and labels:
[1] = tested on: sphenopalatine ganglion; conditions: cited from earlier work; for duration of anesthesia provided to the nerve structure: long-acting local anesthetics in SPGB
[2] = tested on: tension headaches and migraines; test: Earlier treatment of Patient 1 (tension headaches and migraines); type: in vivo, human; conditions: Patient 1, before the composition
Text: This patient was a person who experienced tension headaches and migraines. The pain was acute producing nauseas and vomits.

Structure (SMILES) | duration of anesthesia provided to the nerve structure [1] | outcome of earlier treatment [2] | other results
CCCCN1CCCCC1C(=O)Nc1c(C)cccc1C (centres unmarked) [bupivacaine] | at least about an hour | – | –
CCN(CC)CC(=O)Nc1c(C)cccc1C [lidocaine] | – | – | period for which head pain is decreased (equal to the duration of the analgesia) ([1]; shorter-acting local anesthetic in SPGB): less than an hour
Cc1ccccc1C(OCCN(C)C)c1ccccc1 (centres unmarked) [norflex] | – | without success | –
COc1ccc2cc(CCC(C)=O)ccc2c1 [relafen] | – | without success | –
CCCN1CCCC[C@H]1C(=O)Nc1c(C)cccc1C [ropivacaine] | at least about an hour | – | –
